Results: patent US6503928B2, “Arylpiperidine and aryl-1,2,5,6-tetrahydropyridine amide derivatives” (Wyeth, priority 1998, dated 2003)
pEC50, pIC50, pKi: −log10 of the molar value. Structures can show the parent of a compound that is named as a salt.

Key:
[1] = target: T1, human 5HT1A receptor (Homo sapiens, UniProt P08908); assay: 5-HT1A receptor intrinsic activity assay (cAMP); format: cell-based; settings: for pEC50: agonist mode: reversal of forskolin-stimulated cAMP in CHO cells transfected with human 5-HT1A; for pIC50: antagonist mode: reversal of agonist-induced activity, antagonist preincubated 20 minutes before agonist and forskolin
T1 construct: expressed in transfected cells; host or cells: CHO cells (stably transfected)
T1 sequence (P08908 1-422): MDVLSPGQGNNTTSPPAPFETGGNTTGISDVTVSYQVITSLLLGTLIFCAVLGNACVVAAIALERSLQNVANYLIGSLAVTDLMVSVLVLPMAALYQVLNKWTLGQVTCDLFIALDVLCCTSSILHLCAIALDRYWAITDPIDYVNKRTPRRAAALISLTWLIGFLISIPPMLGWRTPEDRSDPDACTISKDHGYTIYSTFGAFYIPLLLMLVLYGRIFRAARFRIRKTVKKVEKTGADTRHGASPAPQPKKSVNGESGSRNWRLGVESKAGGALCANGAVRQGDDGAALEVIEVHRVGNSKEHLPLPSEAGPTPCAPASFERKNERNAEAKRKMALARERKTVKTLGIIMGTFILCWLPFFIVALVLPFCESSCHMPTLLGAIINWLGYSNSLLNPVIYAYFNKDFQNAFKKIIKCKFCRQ
Protocol: 5-HT1A Receptor Intrinsic Activity Assay
The intrinsic activity of compounds of the present invention was established by testing the claimed compounds ability to reverse the stimulation of cyclic adenosinemonophosphate (cAMP) in CHO cells stably transfected with the human 5-HT1A receptor.
Stably transfected CHO cells were grown in DMEM containing 10% heat inactivated FBS and non-essential amino acids. The cells are plated at a density of […] cells per well in a 24 well plate and incubated for 2 days in a CO2 incubator. On the second day, the media is replaced with 0.5 mL treatment buffer (DMEM+25 mM HEPES, 5 mM theophylline, 10 μM pargyline) and incubated for 10 minutes at 37° C. Wells are treated with forskolin (1 μM final concentration) followed immediately by the test compound (0.1 and 1 μM for initial screen) and incubated for an additional 10 minutes at 37° C. The reaction is terminated by removal of the media and addition of 0.5 mL ice cold assay buffer (supplied in the RIA kit). Plates are stored at −20° C. prior to assessment of cAMP formation by RIA. EC50 values are determined for the active test compounds. Compounds shown to have no agonist activities (Emax=0%) are further analyzed for their ability to reverse agonist-induced activity. In separate experiments, 6 concentrations of antagonist are preincubated for 20 minutes prior to the addition of agonist and forskolin. Cells are harvested as described above. The cAMP kit is supplied by Amersham and the RIA is performed as per kit instructions, and calculations of IC50 performed by GraphPad Prism.

[2] = target: T1, human 5HT1A receptor; assay: 5-HT1A receptor binding assay ([3H] 8-OH-DPAT displacement); settings: displacement of [3H] 8-OH-DPAT, CHO cells stably transfected with human 5HT1A receptor
Protocol: 5-HT1A Receptor Binding Assay
High affinity for the serotonin 5-HT1A receptor was established by testing the compound's ability to displace [^3H] 8-OH-DPAT bindino in CHO cells stably transfected with human 5HT1A receptor. Stably transfected CHO cells are grown in DMEM containing 10% heat inactivated FBS and non-essential amino acids. Cells are scraped off the plate, transferred to centrifuge tubes, and washed twice by centrifugation (2000 rpm for 10 min., 4° C.) in buffer (50 mM Tris pH 7.5). The resulting pellets are aliquoted and placed at −80° C. On the day of assay, the cells are thawed on ice and resuspended in buffer. The binding assay is performed in a 96 well microtiter plate in a total volume of 250 μL. Non-specific binding is determined in the presence of […] 5-HT, final ligand concentration is 1.5 nM. Following a 30 minute incubation at room temperature, the reaction is terminated by the addition of ice cold buffer and rapid filtration through a GF/B filter presoaked for 30 minutes in 0.5% PEI. Compounds are initially tested in a single point assay to determine percent inhibition at […], and Ki values are determined for the active compounds.

[3] = agonist mode: reversal of forskolin-stimulated cAMP, Emax=0% means no agonist activity

| Compound | melting point | pKi [2] | other results |
| --- | --- | --- | --- |
| COc1ccccc1C1CCN(C[C@@H](Cc2ccccc2)NC(=O)C2(C)CCCCC2)CC1 (as salt: fumarate) [Example 5, (R)-1-Methyl-cyclohexanecarboxylic Acid {1-Benzyl-2-[4-(2-methoxy-phenyl)-piperidin-1-yl]-ethyl}-amide] | 77 to 79 °C |  |  |
| COc1ccccc1C1CCN(C[C@@H](Cc2cccnc2)N(C)C(=O)C2CCCCC2)CC1 [Example 9, Cyclohexanecarboxylic Acids {(1R)-2-[4-(2-Methoxy-phenyl)-piperidin-1-yl]-1-pyridin-3-ylmethyl-ethyl}-methyl-amide] |  | 8.75 | Emax [1, 3]: 0% |
| COc1ccccc1C1CCN(C[C@@H](Cc2cccnc2)N(C)C(=O)C2CCCCC2)CC1 (as salt: hydrochloride) [Example 9, Cyclohexanecarboxylic Acids {(1R)-2-[4-(2-Methoxy-phenyl)-piperidin-1-yl]-1-pyridin-3-ylmethyl-ethyl}-methyl-amide] | 148 to 150 °C |  |  |
| COc1ccccc1C1=CCN(C[C@@H](Cc2ccccc2)NC(=O)C2CCCCC2)CC1 [Example 3, (R)-Cyclohexanecarboxylic Acid {1-Benzyl-2-[4-(2-methoxy-phenyl)-3,6-dihydro-2H-pyridin-1-yl]-ethyl}-amide] |  | 9.66 | pEC50 [1]: 8.47 |
| COc1ccccc1C1=CCN(C[C@@H](Cc2ccccc2)NC(=O)C2CCCCC2)CC1 (as salt: fumarate) [Example 3, (R)-Cyclohexanecarboxylic Acid {1-Benzyl-2-[4-(2-methoxy-phenyl)-3,6-dihydro-2H-pyridin-1-yl]-ethyl}-amide] | 146 to 148 °C |  |  |
| COc1ccc(F)cc1C1=CCN(C[C@@H](Cc2ccccc2)N(C)C(=O)C2(C)CCCCC2)CC1 [Example 2, 1-Methyl-cyclohexanecarboxylic Acid {(1R)-1-Benzyl-2-[4-(5-fluoro-2-methoxy-phenyl)-1,2,5,6-tetrahydro-4H-pyridin-1-yl]-ethyl}-methyl-amide] |  | 8.31 | cAMP Emax [1, 3]: 0% |
| COc1ccccc1C1CCN(C[C@@H](Cc2ccccc2)NC(=O)C2CCCCC2)CC1 (as salt: fumarate) [Example 6, (R)-Cyclohexanecarboxylic Acid {1-Benzyl-2-[4-(2-methoxy-phenyl)-piperidin-1-yl]-ethyl}-amide] | 103 to 105 °C |  |  |
| COc1ccccc1C1=CCN(C[C@@H](Cc2ccccc2)NC(=O)C2(C)CCCCC2)CC1 (as salt: fumarate) [Example 4, (R)-1-Methyl-cyclohexanecarboxylic Acid {1-Benzyl-2-[4-(2-methoxy-phenyl)-3,6-dihydro-2H-pyridin-1-yl]-ethyl}-amide] | 102 to 104 °C |  |  |
| COc1ccccc1C1CCN(C[C@@H](Cc2cccnc2)NC(=O)C2(C)CCCCC2)CC1 (as salt: fumarate) [Example 7, 1-Methyl-cyclohexanecarboxylic Acid {(1R)-2-[4-(2-Methoxy-phenyl)-piperidin-1-yl]-1-pyridin-3-ylmethyl-ethyl}-amide] | 99 to 101 °C |  |  |
| COc1ccccc1C1CCN(C[C@@H](Cc2ccncc2)N(C)C(=O)C2CCCCC2)CC1 (as salt: hydrochloride) [Example 10, Cyclohexanecarboxylic acid {(1R)-2-[4-(2-Methoxy-phenyl)-piperidin-1-yl]-1-pyridin-4-ylmethyl-ethyl}-methyl-amide] | 158 to 160 °C |  |  |
| COc1ccc(F)cc1C1CCN(C[C@@H](Cc2ccccc2)N(C)C(=O)C2(C)CCCCC2)CC1 (as salt: fumarate) [Example 1, 1-Methyl-cyclohexanecarboxylic Acid {(1R)-1-Benzyl-2-[4-(5-fluoro-2-methoxy-phenyl)-piperidine-1-yl]-ethyl}-methyl-amide] | 160 to 165 °C |  |  |
| COc1ccccc1C1CCN(C[C@@H](Cc2cccnc2)NC(=O)C2(C)CCCCC2)CC1 [Example 7, 1-Methyl-cyclohexanecarboxylic Acid {(1R)-2-[4-(2-Methoxy-phenyl)-piperidin-1-yl]-1-pyridin-3-ylmethyl-ethyl}-amide] |  | 9.13 | Emax [1, 3]: 0%; pIC50 [1]: 7.42 |
| COc1ccccc1C1=CCN(C[C@@H](Cc2ccccc2)NC(=O)C2(C)CCCCC2)CC1 [Example 4, (R)-1-Methyl-cyclohexanecarboxylic Acid {1-Benzyl-2-[4-(2-methoxy-phenyl)-3,6-dihydro-2H-pyridin-1-yl]-ethyl}-amide] |  | 9.60 | pEC50 [1]: 8.37 |
| COc1ccccc1C1CCN(C[C@@H](Cc2ccncc2)N(C)C(=O)C2CCCCC2)CC1 [Example 10, Cyclohexanecarboxylic acid {(1R)-2-[4-(2-Methoxy-phenyl)-piperidin-1-yl]-1-pyridin-4-ylmethyl-ethyl}-methyl-amide] |  | 8.93 | Emax [1, 3]: 0%; pIC50 [1]: 7.71 |
| COc1ccccc1C1CCN(C[C@@H](Cc2ccncc2)NC(=O)C2(C)CCCCC2)CC1 (as salt: fumarate) [Example 8, 1-Methyl-cyclohexanecarboxylic Acid {(1R)-2-[4-(2-Methoxy-phenyl)-piperidin-1-yl]-1-pyridin-4-ylmethyl-ethyl}-amide] | 108 to 110 °C |  |  |
| COc1ccccc1C1CCN(C[C@@H](Cc2ccncc2)NC(=O)C2(C)CCCCC2)CC1 [Example 8, 1-Methyl-cyclohexanecarboxylic Acid {(1R)-2-[4-(2-Methoxy-phenyl)-piperidin-1-yl]-1-pyridin-4-ylmethyl-ethyl}-amide] |  | 9.20 | Emax [1, 3]: 0% |
